Source: BindingDB's records for doi:10.1111/cbdd.12881 (Sichuan University, 2017)

Experiments:
Assay in all cases: In Vitro Enzymatic Assay
Conditions in all cases: 25 °C
[1] = molecular target: Protein arginine N-methyltransferase 5 (Homo sapiens, UniProt O14744)
Method: (§1) All in vitro enzymatic assays were carried out by Shanghai ChemPartner Co. (998 Halei Road, Pudong New Area, Shanghai, 201203, China). To measure the IC50 values, 10 concentrations of the target compound were tested. Compounds were prepared as10 mM stock in DMSO and diluted to final concentration in DMSO when needed. The PRMT enzymes and substrates were incubated with indicated concentrations of compounds in a 384-well plate for 60 min at room temperature. After the reaction, acceptor and donor solutions were added to label the residual substrates of PRMT enzymes. The labeling process was lasting for 60 min at room temperature, followedby the reading end-point with Enspire with alpha mode.

[2] = molecular target: T1, Protein arginine N-methyltransferase 1 [11-371] (Homo sapiens, UniProt Q99873)
T1 construct: 11-371
T1 sequence (Q99873 11-371): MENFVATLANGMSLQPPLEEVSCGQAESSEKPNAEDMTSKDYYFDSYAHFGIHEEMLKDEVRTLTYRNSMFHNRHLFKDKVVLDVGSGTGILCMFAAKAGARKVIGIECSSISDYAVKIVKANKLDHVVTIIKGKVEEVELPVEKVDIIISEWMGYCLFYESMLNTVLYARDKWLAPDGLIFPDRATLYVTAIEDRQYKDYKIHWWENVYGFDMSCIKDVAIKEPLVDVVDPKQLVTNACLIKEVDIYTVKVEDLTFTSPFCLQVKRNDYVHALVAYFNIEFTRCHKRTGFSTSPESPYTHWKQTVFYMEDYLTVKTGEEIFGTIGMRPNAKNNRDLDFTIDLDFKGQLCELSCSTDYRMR
Method: as §1

[3] = molecular target: T2, Protein arginine N-methyltransferase 7 (Homo sapiens, UniProt Q9NVM4)
T2 sequence (Q9NVM4 whole entry): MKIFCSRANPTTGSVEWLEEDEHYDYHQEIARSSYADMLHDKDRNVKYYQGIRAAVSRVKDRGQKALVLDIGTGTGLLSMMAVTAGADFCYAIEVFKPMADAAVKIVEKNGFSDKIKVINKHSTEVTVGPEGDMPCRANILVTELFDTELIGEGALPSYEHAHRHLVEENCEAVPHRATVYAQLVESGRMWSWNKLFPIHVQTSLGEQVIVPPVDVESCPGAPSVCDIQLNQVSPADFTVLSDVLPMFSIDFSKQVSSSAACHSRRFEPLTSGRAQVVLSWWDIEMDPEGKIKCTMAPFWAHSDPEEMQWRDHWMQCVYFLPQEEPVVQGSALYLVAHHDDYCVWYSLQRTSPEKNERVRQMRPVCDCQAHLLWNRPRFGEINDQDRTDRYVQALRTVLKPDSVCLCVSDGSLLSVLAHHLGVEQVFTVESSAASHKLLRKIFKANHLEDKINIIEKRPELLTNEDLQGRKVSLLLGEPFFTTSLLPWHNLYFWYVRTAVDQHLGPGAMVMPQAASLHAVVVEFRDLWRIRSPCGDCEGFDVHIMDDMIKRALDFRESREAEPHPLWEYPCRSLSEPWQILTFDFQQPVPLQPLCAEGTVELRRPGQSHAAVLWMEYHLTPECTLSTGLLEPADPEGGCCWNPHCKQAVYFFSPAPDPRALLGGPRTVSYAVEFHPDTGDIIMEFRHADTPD
Method: as §1

[4] = molecular target: Protein arginine N-methyltransferase 8 (Homo sapiens, UniProt Q9NR22)
Protein arginine N-methyltransferase 8, sequence (Q9NR22 whole entry): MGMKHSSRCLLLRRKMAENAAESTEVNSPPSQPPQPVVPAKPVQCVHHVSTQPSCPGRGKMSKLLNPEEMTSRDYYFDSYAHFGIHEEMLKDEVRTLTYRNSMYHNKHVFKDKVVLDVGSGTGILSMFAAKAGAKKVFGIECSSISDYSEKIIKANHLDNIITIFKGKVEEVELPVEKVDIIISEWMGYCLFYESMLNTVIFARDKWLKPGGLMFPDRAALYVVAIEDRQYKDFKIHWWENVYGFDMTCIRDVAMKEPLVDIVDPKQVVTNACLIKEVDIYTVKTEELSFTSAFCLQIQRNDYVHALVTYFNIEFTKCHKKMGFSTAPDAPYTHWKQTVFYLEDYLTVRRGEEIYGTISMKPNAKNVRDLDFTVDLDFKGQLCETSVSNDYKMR
Method: as §1

[5] = molecular target: T3, Histone-arginine methyltransferase CARM1 (Homo sapiens, UniProt Q86X55)
T3 sequence (Q86X55 whole entry): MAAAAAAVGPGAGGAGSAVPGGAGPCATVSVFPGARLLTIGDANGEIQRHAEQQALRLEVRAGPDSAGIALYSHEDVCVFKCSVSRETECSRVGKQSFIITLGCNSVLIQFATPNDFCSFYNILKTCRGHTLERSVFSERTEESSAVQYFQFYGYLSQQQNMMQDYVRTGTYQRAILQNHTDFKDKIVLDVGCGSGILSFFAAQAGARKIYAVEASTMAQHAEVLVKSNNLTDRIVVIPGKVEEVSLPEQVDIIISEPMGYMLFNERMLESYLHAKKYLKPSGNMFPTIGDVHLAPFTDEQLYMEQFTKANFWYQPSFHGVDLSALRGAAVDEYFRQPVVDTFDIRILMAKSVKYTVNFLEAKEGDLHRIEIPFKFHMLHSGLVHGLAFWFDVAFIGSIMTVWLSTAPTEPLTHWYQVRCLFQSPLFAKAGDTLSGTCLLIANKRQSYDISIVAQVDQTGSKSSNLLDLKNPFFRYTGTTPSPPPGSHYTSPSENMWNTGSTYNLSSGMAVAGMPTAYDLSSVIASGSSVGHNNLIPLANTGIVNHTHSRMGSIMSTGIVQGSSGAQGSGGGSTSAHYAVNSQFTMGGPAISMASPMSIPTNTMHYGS
Method: as §1

[6] = molecular target: Protein arginine N-methyltransferase 6 (Homo sapiens, UniProt Q96LA8)
Protein arginine N-methyltransferase 6, sequence (Q96LA8 whole entry): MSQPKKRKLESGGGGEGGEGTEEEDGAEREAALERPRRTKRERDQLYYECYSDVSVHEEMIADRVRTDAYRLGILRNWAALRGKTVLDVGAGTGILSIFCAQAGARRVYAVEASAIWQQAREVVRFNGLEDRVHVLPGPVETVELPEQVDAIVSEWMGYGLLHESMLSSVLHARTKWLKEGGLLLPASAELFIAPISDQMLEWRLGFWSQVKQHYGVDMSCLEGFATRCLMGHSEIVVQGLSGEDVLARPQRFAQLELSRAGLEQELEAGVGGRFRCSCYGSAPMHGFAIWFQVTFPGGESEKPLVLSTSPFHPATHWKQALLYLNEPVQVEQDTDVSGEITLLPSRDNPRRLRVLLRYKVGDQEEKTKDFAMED
Method: as §1

[7] = molecular target: Protein arginine N-methyltransferase 3 [N508S] (Homo sapiens, UniProt O60678, N508S)
Protein arginine N-methyltransferase 3 [N508S], sequence (O60678 2-531 N508S limits assumed): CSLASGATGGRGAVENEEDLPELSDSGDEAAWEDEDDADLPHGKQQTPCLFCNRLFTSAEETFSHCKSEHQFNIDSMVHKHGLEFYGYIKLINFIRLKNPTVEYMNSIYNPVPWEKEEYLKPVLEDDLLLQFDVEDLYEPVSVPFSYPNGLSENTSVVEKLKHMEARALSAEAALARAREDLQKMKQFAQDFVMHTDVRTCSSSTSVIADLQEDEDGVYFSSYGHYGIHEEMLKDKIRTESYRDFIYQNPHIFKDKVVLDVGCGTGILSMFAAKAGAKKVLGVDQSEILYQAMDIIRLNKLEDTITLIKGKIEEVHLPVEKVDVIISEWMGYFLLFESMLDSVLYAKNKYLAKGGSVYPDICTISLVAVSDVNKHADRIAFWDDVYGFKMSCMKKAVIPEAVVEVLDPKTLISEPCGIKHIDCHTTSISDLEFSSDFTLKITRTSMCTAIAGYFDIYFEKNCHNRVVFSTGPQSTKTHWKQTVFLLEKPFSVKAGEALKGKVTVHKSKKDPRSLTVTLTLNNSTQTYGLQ
Method: as §1

Protein arginine N-methyltransferase 5, sequence (O14744 whole entry): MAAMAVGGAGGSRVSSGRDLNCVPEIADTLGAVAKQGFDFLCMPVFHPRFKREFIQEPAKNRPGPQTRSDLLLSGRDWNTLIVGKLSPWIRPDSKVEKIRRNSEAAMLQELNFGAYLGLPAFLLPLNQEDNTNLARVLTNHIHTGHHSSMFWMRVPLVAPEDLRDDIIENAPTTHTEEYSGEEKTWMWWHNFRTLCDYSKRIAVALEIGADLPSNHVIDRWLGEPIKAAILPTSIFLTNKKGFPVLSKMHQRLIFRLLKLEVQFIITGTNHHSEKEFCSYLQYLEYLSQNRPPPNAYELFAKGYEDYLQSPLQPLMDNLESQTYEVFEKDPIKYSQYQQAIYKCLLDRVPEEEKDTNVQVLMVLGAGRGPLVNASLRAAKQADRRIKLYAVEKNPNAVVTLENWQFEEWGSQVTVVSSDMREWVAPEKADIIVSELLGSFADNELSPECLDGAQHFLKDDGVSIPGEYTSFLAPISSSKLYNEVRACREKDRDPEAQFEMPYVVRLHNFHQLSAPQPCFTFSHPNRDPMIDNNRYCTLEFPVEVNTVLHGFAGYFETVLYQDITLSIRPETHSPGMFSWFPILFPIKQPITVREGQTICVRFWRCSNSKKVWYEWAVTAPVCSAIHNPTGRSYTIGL

Work on `COc1ccc(-c2ccc(/C=N/NC(N)=O)o2)cc1` [2-((5-(4-methoxyphenyl)furan-2-yl)methylene)hydrazinecarboxamide (4h)] yielded an IC50 [1] of 2.1 µM.
For `NC(=O)N/N=C/c1ccc(-c2ccccc2)o1` [2-((5-phenylfuran-2-yl)methylene)hydrazinecarboxamide (4a)], the IC50 [1] was 12 µM.
`NC(=O)N/N=C/c1cccc(-c2ccc(Cl)cc2)c1` [2-((4′-chloro-[1,1′-biphenyl]-3-yl)methylene)hydrazinecarboxamide (9b)] gave an IC50 [1] of 3.8 µM.
`NC(=O)N/N=C/c1cccc(-c2ccc(Cl)cc2)n1` [2-((6-(4-chlorophenyl)pyridin-2-yl)methylene)hydrazinecarboxamide (9g)] showed an IC50 [1] of 3.5 µM.
With `NC(=S)N/N=C/c1ccc(-c2ccc(Cl)cc2)o1` [P5i-7] the IC50 [1] was 0.72 µM.
`NC(=O)N/N=C/c1ccc(-c2ccc([N+](=O)[O-])cc2)o1` [2-((5-(4-nitrophenyl)furan-2-yl)methylene)hydrazinecarboxamide (4g)] showed an IC50 [1] of 18 µM.
With `NC(=O)N/N=C/c1ccc(-c2cccc(F)c2)o1` [2-((5-(3-fluorophenyl)furan-2-yl)methylene)hydrazinecarboxamide (4d)] the IC50 [1] was 14 µM.
Work on `NC(=O)N/N=C/c1ccc(-c2ccc(Cl)cc2N)o1` [2-((5-(2-amino-4-chlorophenyl)furan-2-yl)methylene)hydrazinecarboxamide (4m)] yielded an IC50 [1] of 13 µM.
Work on `NC(=O)N/N=C/c1cncc(-c2ccc(Cl)cc2)c1` [2-((5-(4-chlorophenyl)pyridin-3-yl)methylene)hydrazinecarboxamide (9f)] yielded an IC50 [1] of 6.9 µM.
`NC(=O)N/N=C/c1ccc(-c2ccc(Cl)cc2)o1` [P5i-6] gave an IC50 [2] of over 100 µM, an IC50 [3] of over 100 µM and an IC50 [4] of over 100 µM. The IC50 [5] was over 100 µM, the IC50 [6] was over 100 µM and the IC50 [7] was over 100 µM.
`NC(=O)N/N=C/c1ccc(-c2ccc(N)cc2)o1` [2-((5-(4-aminophenyl)furan-2-yl)methylene)hydrazinecarboxamide (4j)] showed an IC50 [1] of 40 µM.
`NC(=O)N/N=C/c1ccc(-c2ccc(F)cc2)o1` [2-((5-(4-fluorophenyl)furan-2-yl)methylene)hydrazinecarboxamide (4e)] was tested, and the IC50 [1] was 12 µM.
For `O=C1NC(=S)NC(=O)C1=Cc1ccc(-c2ccc(Cl)cc2)o1` [5-{[5-(4-chlorophenyl)furan-2-yl]methylidene}-2-sulfanylidene-1,3-diazinane-4,6-dione], the IC50 [1] was 67 µM.
